What was measured:
[1] = standard rat paw pressure analgesia test; type: in vivo; conditions: i.v.
Excerpt: The ED50 doses for several representative compounds of this invention in the standard rat paw pressure analgesia test are presented in Table 1.

mu opioid receptor = molecular target: T1, mu opioid receptor (Cavia porcellus, UniProt A0ACM8Q262); assay: mu opioid receptor binding: tritiated DAGO in guinea pig brain homogenates; conditions: read-out: Opoid Binding Mu Ki; guinea pig brain homogenate, [3H]DAGO, 150 minutes, 0° C.
T1 construct: full-length wild-type receptor
T1 sequence (A0ACM8Q262 1-400): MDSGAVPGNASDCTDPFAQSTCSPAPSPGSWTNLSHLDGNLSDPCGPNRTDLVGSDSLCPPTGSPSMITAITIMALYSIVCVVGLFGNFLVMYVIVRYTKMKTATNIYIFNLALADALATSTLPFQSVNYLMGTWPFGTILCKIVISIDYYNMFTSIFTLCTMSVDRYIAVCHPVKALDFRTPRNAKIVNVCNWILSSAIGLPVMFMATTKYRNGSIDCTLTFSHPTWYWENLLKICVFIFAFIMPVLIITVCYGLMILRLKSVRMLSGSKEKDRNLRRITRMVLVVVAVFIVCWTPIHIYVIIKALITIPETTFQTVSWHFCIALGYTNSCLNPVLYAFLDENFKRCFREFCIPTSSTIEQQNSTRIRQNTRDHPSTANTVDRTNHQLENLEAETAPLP

Compound	Rat Paw Pressure MPE50 [1] [mg·kg]	Ki (mu opioid receptor) [nM]
CO[C@H]1C[C@@H](N2CCCC2)[C@H](N(C)C(=O)COc2ccc(Cl)c(Cl)c2)C[C@H]1OC (relative stereo) [Compound 4]	> 10	1100
CO[C@H]1C[C@@H](N2CCCC2)[C@H](N(C)C(=O)CC2c3ccccc3-c3ccccc32)C[C@H]1OC (relative stereo) [Compound 7]	–	273
CO[C@H]1C[C@@H](N2CCCC2)[C@H](N(C)C(=O)COc2cccc(F)c2)C[C@H]1OC (relative stereo) [Compound 9, N-[4,5-Dimethoxy-2-(1-pyrrolidinyl)cyclohexyl]-2-(3-fluorophenoxy)-N-methylacetamide]	–	1100
CO[C@H]1C[C@@H](N2CCCC2)[C@H](N(C)C(=O)Cc2ccc(Cl)c(Cl)c2)C[C@H]1OC (relative stereo) [Compound 6]	5.2	–
CO[C@H]1C[C@@H](N2CCCC2)[C@H](N(C)C(=O)COc2cc(C)c(Cl)c(C)c2Cl)C[C@H]1OC (relative stereo) [Compound 8]	–	700
CO[C@H]1C[C@@H](N2CCCC2)[C@H](N(C)C(=O)Cc2cccc3ccccc23)C[C@H]1OC (relative stereo) [Compound 5]	1.7	–
CO[C@H]1C[C@@H](N2CCCC2)[C@H](N(C)C(=O)COc2cc(C)c(Cl)c(C)c2)C[C@H]1OC (relative stereo) [Compound 3]	> 10	720
